In brackets after ≈: the same amount, converted by molar mass. Like-named read-outs stand apart in the source and are kept apart here.
What was measured:
SAS cells = test: SAS CTG proliferation assay (120 h) (HNSCC, wt amplified); type: cell-based
Protocol: SAS CTG Proliferation Assay (120 h) (HNSCC, Wt Amplified)
SAS cells (JCRB0260) are dispensed into 384-well plates, flat and clear bottom (Greiner, PNr. 781091) at a density of 300 cells per well in 60 μL DMEM:F12 (Gibco 31330-038)+10% Fetal Calf Serum (HyClone, PNr.: SH30084.03) and incubated at 37° C. in a CO2 incubator overnight. The next day, compounds (10 mM stock in DMSO) are added with the ECHO acoustic liquid handler system (Beckman Coulter), including DMSO controls. Plates are incubated for 120 h, and cell viability is measured using CellTiter-Glo luminescent cell viability reagent (Promega product code G7570). Viability (stated as percent of control) is defined as relative luminescence units RLU of each well divided by the RLU of cells in DMSO controls. IC50 values are determined from viability measurements by non-linear regression using a four-parameter model.

[1] = Solubility measurement (DMSO solution method), McIlvaine buffer pH 4.5 or 6.8; type: physicochemical; settings: aqueous buffer, kinetic from dmso stock, DMSO stock diluted to 250 μM, 24 h shaking at ambient temperature
Summary of the method: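 Filtrate concentration by LC-UV, calibrated to a known-concentration reference dissolved completely in acetonitrile/water (1:1). Samples came from 250 µM final dilutions of DMSO stock in pH 4.5 or 6.8 McIlvaine buffer, shaken 24 h at ambient temperature, then filtered.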

[2] = Plasma protein binding assay (PPB), equilibrium dialysis, 10% FCS in PBS; type: in vitro ADME; settings: bovine, read-out: PPB 10% FCS (% fu)
Summary of the method: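 Test compound (1-10 μmol/L) in 10% FCS in PBS was dialysed for 3-5 h at 37° C versus PBS ± dextran across a semipermeable membrane. LC-MS of both compartments after protein precipitation gave Cserum and Cbuffer, from which the unbound fraction fu was derived.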

KRAS (G12D)::SOS1 = KRAS (G12D)::SOS1 (Homo sapiens (Human), UniProt P01116, G12D); test: KRAS::SOS1 AlphaScreen binding assay, KRAS G12D
Chain of KRAS (G12D)::SOS1 (P01116 other isoform, or with tags, fused parts or gaps G12D): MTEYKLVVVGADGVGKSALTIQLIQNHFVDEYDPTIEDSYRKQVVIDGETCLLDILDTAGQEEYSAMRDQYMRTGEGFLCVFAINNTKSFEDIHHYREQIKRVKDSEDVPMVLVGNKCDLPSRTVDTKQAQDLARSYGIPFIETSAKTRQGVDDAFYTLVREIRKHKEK
Summary of the method: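 Compounds (up to 100 μM, eleven fivefold dilutions in duplicate) were incubated 30 min with KRAS 1-169 (10 nM, or 7.5 nM for G12C), GST-SOS1 564-1049 (5 nM for G12D/G12C, 10 nM for others) and 10 μM GDP in PBS buffer with BSA and Tween. Donor/acceptor beads were then added for 60 min at room temperature, and IC50 came from a 4-parameter fit of the AlphaScreen signal.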

[3] = McIlvaine buffer pH 4.5, read-out: solubility pH 4.5
[4] = McIlvaine buffer pH 6.8, read-out: solubility pH 6.8

Row | Structure (SMILES) | IC50 (SAS cells) [nM] | solubility at 24 h [1, 3] [µg/mL] | solubility at 24 h [1, 4] [µg/mL] | fraction unbound [2] | IC50 (KRAS (G12D)::SOS1) [nM]
1 | C[C@H](Oc1cc(N2Cc3cnn(C)c3C2)nc(-c2noc3c2CCC[C@@]32CCCc3sc(N)c(C#N)c32)n1)[C@@H]1CCCN1C [II-63] | 1310 | < 1 | < 1 | 0.06 | 12
2 | C[C@H](Oc1cc(N2CCNC2=O)nc(-c2noc3c2CCC[C@@]32CCCc3sc(N)c(C#N)c32)n1)[C@@H]1CCCN1C [II-64] | 16 | 40 (≈ 69.6 µM) | 8 (≈ 13.9 µM) | 0.23 | 1
3 | C[C@H](Oc1cc(-n2cnc3cccnc32)nc(-c2noc3c2CCC[C@@]32CCCc3sc(N)c(C#N)c32)n1)[C@@H]1CCCN1C [II-65] | 173 | 7 (≈ 11.5 µM) | < 1 | 0.03 | 9
4 | C[C@H](Oc1cc(N2CC[C@@H](O)C2)nc(-c2noc3c2CCC[C@@]32CCCc3sc(N)c(C#N)c32)n1)[C@@H]1CCCN1C [II-66] | 60 | > 117 | 112 (≈ 195 µM) | 0.41 | 1
5 | C[C@H](Oc1cc(C2=CCOCC2)nc(-c2noc3c2CCC[C@@]32CCCc3sc(N)c(C#N)c32)n1)[C@@H]1CCCN1C [II-67] | 8 | 98 (≈ 171 µM) | 41 (≈ 71.6 µM) | 0.23 | 3
6 | Cc1cn(C)nc1-c1cc(O[C@@H](C)[C@@H]2CCCN2C)nc(-c2noc3c2CCC[C@@]32CCCc3sc(N)c(C#N)c32)n1 [II-68] | 623 | 79 (≈ 135 µM) | 5 (≈ 8.55 µM) | 0.09 | 9
7 | C[C@H](Oc1cc(-n2ccnc2)nc(-c2noc3c2CCC[C@@]32CCCc3sc(N)c(C#N)c32)n1)[C@@H]1CCCN1C [II-69] | 102 | 108 (≈ 194 µM) | 76 (≈ 137 µM) | 0.45 | 2
8 | C[C@H](Oc1cc(-n2cncn2)nc(-c2noc3c2CCC[C@@]32CCCc3sc(N)c(C#N)c32)n1)[C@@H]1CCCN1C [II-70] | 41 | 109 (≈ 195 µM) | 94 (≈ 169 µM) | 0.44 | 2
9 | C[C@H](Oc1cc(-c2cc[nH]n2)nc(-c2noc3c2CCC[C@@]32CCCc3sc(N)c(C#N)c32)n1)[C@@H]1CCCN1C [II-71] | 47 | > 112 | 82 (≈ 147 µM) | 0.59 | 2
10 | C[C@H](Oc1cc(N2CCCC3(COC3)C2)nc(-c2noc3c2CCC[C@@]32CCCc3sc(N)c(C#N)c32)n1)[C@@H]1CCCN1C [II-72] | 206 | > 146 | 89 (≈ 145 µM) | 0.1 | 2
11 | C[C@H](Oc1cc(N2CCCC2=O)nc(-c2noc3c2CCC[C@@]32CCCc3sc(N)c(C#N)c32)n1)[C@@H]1CCCN1C [II-73] | 33 | > 124 | 88 (≈ 153 µM) | 0.22 | 2
12 | C[C@H](Oc1cc(-c2cnn(C)c2)nc(-c2noc3c2CCC[C@@]32CCCc3sc(N)c(C#N)c32)n1)[C@@H]1CCCN1C [II-74] | 192 | 57 (≈ 99.9 µM) | 29 (≈ 50.8 µM) | 0.48 | 6
13 | C[C@H](Oc1cc(N2CCN(C)C2=O)nc(-c2noc3c2CCC[C@@]32CCCc3sc(N)c(C#N)c32)n1)[C@@H]1CCCN1C [II-75] | 31 | > 122 | 91 (≈ 155 µM) | 0.16 | 1
14 | C[C@H](Oc1cc(C2CCOCC2)nc(-c2noc3c2CCC[C@@]32CCCc3sc(N)c(C#N)c32)n1)[C@@H]1CCCN1C [II-76] | 66 | > 122 | 104 (≈ 181 µM) | 0.61 | 3
15 | C[C@H](Oc1cc(N2CCOC3(COC3)C2)nc(-c2noc3c2CCC[C@@]32CCCc3sc(N)c(C#N)c32)n1)[C@@H]1CCCN1C [II-77] | 152 | > 143 | > 134 | 0.16 | 1
16 | C[C@H](Oc1cc(-c2ccncc2)nc(-c2noc3c2CCC[C@@]32CCCc3sc(N)c(C#N)c32)n1)[C@@H]1CCCN1C [II-78] | 318 | 41 (≈ 72.2 µM) | 3 (≈ 5.28 µM) | 0.49 | 4
17 | Cc1nccn1-c1cc(O[C@@H](C)[C@@H]2CCCN2C)nc(-c2noc3c2CCC[C@@]32CCCc3sc(N)c(C#N)c32)n1 [II-79] | 2590 | > 154 | 102 (≈ 179 µM) | 0.15 | 2
18 | CC(=O)N1CC=C(c2cc(O[C@@H](C)[C@@H]3CCCN3C)nc(-c3noc4c3CCC[C@@]43CCCc4sc(N)c(C#N)c43)n2)CC1 [II-81] | 51 | 114 (≈ 186 µM) | 84 (≈ 137 µM) | 0.52 | 5
19 | C[C@H](Oc1cc(-c2cncnc2)nc(-c2noc3c2CCC[C@@]32CCCc3sc(N)c(C#N)c32)n1)[C@@H]1CCCN1C [II-82] | 990 | 102 (≈ 179 µM) | 72 (≈ 127 µM) | 0.66 | 6
20 | C[C@H](Oc1cc(-c2ccn(C3COC3)n2)nc(-c2noc3c2CCC[C@@]32CCCc3sc(N)c(C#N)c32)n1)[C@@H]1C[C@H](F)CN1C [II-83] | 18 | < 1 | < 1 | 0.18 | 20
21 | C[C@H](Oc1cc(-c2ccccn2)nc(-c2noc3c2CCC[C@@]32CCCc3sc(N)c(C#N)c32)n1)[C@@H]1CCCN1C [II-85] | 26 | 38 (≈ 66.9 µM) | 3 (≈ 5.28 µM) | 0.08 | 2
22 | C[C@H](Oc1cc(-c2cnn(C)n2)nc(-c2noc3c2CCC[C@@]32CCCc3sc(N)c(C#N)c32)n1)[C@@H]1CCCN1C [II-86] | 502 | 112 (≈ 196 µM) | 60 (≈ 105 µM) | 0.34 | 5
23 | CO[C@@H]1C[C@@H]([C@H](C)Oc2cc(-c3ccn(C)n3)nc(-c3noc4c3CCC[C@@]43CCCc4sc(N)c(C#N)c43)n2)N(C)C1 [II-91] | 70 | 118 (≈ 196 µM) | < 1 | 0.08 | 4
24 | C[C@H](Oc1cc(-n2ccnc2Cl)nc(-c2noc3c2CCC[C@@]32CCCc3sc(N)c(C#N)c32)n1)[C@@H]1CCCN1C [II-93] | 366 | 97 (≈ 164 µM) | 20 (≈ 33.8 µM) | 0.05 | 3
